Laboratory results: patent US20260216110A1, “COMPOUND USEFUL AS THYROID HORMONE RECEPTOR ß-SELECTIVE THYROID HORMONE ANALOG” (NATIONAL UNIVERSITY CORPORATION TOKAI NATIONAL HIGHER …, priority 2022, published 2026)
Entries after “also recorded” stand apart in the source; their conditions may differ.

Experiments:
[1] = tested on: ligand-binding domain of THRα or THRβ; experiment: Luciferase reporter assay for THRβ selectivity in GloResponse 9XGAL4UAS-luc2P HEK293 cells; type: cell-based; details: EC50-based, THRα vs THRβ
Description: (§1) Specifically, the procedure performed is described below.
The cells used and cell culture were as follows. GloResponse 9XGAL4UAS-luc2P HEK293 cells (Promega) were stably transfected with pFN26A (BIND) (Promega) containing the coding region of the ligand-binding domain of THRα or THRβ. The cells were cultured in DMEM supplemented with 10% FBS, 200 μg/mL Hygromycin, and 750 μg/mL G418 in 90 mm cell culture dishes at 37° C. with 5% CO2. The cells were subcultured every 3 days and used in a luciferase reporter assay.
The cells were suspended in an assay medium (DMEM supplemented with 5% charcoal/dextran-treated FBS, 25 mM HEPES, and a 4 mM L-Alanyl-L-glutamine solution) and seeded at 2×10^4 cells/well in 96-well plates coated with poly-L-lysine. After incubation at 37° C. with 5% CO2 for 24 hours, each test compound was added at various concentrations. The following day, firefly luciferase luminescence was measured using a Dual-Glo Luciferase Assay System (Promega) with a microplate reader (SpectraMax i3, Molecular Devices). The luminescence of Renilla luciferase was used as an internal standard.

[2] = tested on: lipid droplets in hepatocytes; experiment: Oil Red O staining of liver sections, high-fat diet mice; type: in vivo, C57BL/6J mice; details: HFD mice, 1 μmol/kg-day i.p. for 3 weeks, compared to the vehicle
Description: Lipid droplets are organelles for storing neutral lipids, such as triglycerides and cholesterol esters. Excessive accumulation of lipid droplets in hepatocytes is characteristic of non-alcoholic fatty liver disease (NAFLD). […] Specifically, the procedure performed is described below.
(§2) Male 7-week-old C57BL/6J mice were individually housed in cages (Innocages, ORIENTAL GIKEN) and kept warm at 23° C. with a 12-hour light-dark cycle starting at 8:00 AM. After 1 week of acclimation, the animals were given either a normal diet (ND; 10 kcal % fat, D12450B, Research Diets) or a high-fat diet (HFD; 60 kcal % fat, D12492, Research Diets). […] The injection was given 6 hours after lights on. Food consumption and body weight were measured weekly. Food and water were provided to the animals ad libitum. After 3 weeks of daily injections, whole blood was collected under isoflurane anesthesia, and the heart and liver were harvested. The liver was frozen and stored at −80° C.
20 μm sections were prepared from the frozen liver tissues using a cryostat (CM3050 S, Leica). The sections were mounted on silane-coated glass slides, dried at room temperature, and stored at −80° C. until use. Before staining, the sections were fixed with 1% PFA/1×PBS, pH of 7.4 (Gibco), for 5 minutes, then immersed in 1×PBS for 5 minutes, distilled water for 5 minutes, and a 60% 2-propanol solution for 1 minute. The Oil Red O staining solution was prepared by mixing 0.36 g of Oil Red O (Sigma) with 120 mL of 2-propanol and 80 mL of distilled water, letting it stand at room temperature for 1 hour, filtering the solution, and then leaving it overnight at 37° C. The sections were immersed in the Oil Red O staining solution at 37° C. for 15 minutes, and then rinsed in 60% 2-propanol for 1 minute and in distilled water for 1 minute. Thereafter, the sections were counterstained with Meyer's hematoxylin. […] The area of red-stained lipid droplets was quantified using Image J (NIH), and the percentage of the stained area in the total image area was calculated. Three sections per mouse were analyzed.

[3] = Bone structure parameters (bone metabolism); type: in vivo; details: mice of Test Example 4
Description: The effect of the test compounds on bone metabolism was investigated. Specifically, bone structure parameters (bone volume: BV/TV, trabecular number: Tb.N, trabecular separation: Tb.Sp, trabecular thickness: Tb.Th, connectivity density: Conn.D) were measured using thin sections prepared from the bones of mice in Test Example 4.

[4] = tested on: left ventricular cardiomyocytes; experiment: Transnuclear width of left ventricular cardiomyocytes; type: in vivo, C57BL/6J mice; details: T3; GC-1 high dose 1 μmol/kg BW/day; ZTA-261 dose not specified
Description: as §1
The cardiac tissues collected in Test Example 4 were fixed, dehydrated, and paraffin-infiltrated using an automatic fixation and encapsulation device (Sakura Finetek Japan). Paraffin blocks were prepared using a Tissue Tech TEC 6 (Sakura Finetek Japan), and 5 μm thick transverse sections were prepared using a microtome (Leica). The sections were deparaffinized, rehydrated, and then immersed in a Meyer's hematoxylin solution (FUJIFILM Wako Pure Chemical Industries, Ltd.) and in an eosin solution. Thereafter, the sections were dehydrated and mounted using Entellan new (Merck). The sections were observed under a microscope (BX43; Olympus) at 400× magnification, and digital images were captured using cellSens (Olympus). One hundred cells were randomly selected from the left ventricle of each mouse, and their transnuclear width was measured using Image J (NIH) according to a previously reported method.

[5] = Heart weight (cardiac hypertrophy); type: in vivo, C57BL/6J mice
Description: as §2
Left ventricular hypertrophy is often associated with hyperthyroidism caused by increased heart rate mediated by hTHRα. Therefore, hTHRβ-selective analogs are expected to avoid this adverse effect on the heart. To examine whether cardiac hypertrophy was induced, the weight of the heart collected in Test Example 4 was measured.

[6] = Serum ALT level (hepatotoxicity); type: in vivo, C57BL/6J mice; details: compared to the vehicle
Description: as §1
The blood samples collected in Test Example 4 were left to stand at room temperature for 1 hour, and then centrifuged at 4° C., 800×g, for 15 minutes, followed by collecting the supernatant. The serum ALT levels were measured using an Alanine Aminotransferase (ALT or SGPT) Activity Colorimetric/Fluorometric Assay Kit (BioVision) according to the manufacturer's protocol.

[7] = molecular target: T1, full-length human THRα (Homo sapiens, UniProt P10827); experiment: Radioligand-displacement assay ([125I]-T3), THRα; details: ratio of the IC50 values THRα/THRβ
T1 sequence (P10827 1-410 isoform P10827-2): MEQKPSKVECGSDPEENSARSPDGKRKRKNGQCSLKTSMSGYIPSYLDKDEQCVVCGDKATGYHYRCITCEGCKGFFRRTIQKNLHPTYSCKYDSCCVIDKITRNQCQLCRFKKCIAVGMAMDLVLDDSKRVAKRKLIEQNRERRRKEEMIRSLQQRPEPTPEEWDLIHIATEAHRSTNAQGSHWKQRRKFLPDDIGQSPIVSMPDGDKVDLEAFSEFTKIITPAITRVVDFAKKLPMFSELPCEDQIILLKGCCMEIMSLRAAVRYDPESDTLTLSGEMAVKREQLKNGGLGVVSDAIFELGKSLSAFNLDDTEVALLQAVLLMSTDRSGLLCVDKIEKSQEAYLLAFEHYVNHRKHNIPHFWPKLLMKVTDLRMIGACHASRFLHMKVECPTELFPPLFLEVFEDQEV
Description: Specifically, the assessment was performed as described below by using full-length human THRα and THRβ synthesized by in vitro transcription-translation.
The reaction mixture was incubated overnight at 4° C. A nitrocellulose membrane (Optitran, 0.45 μm in pore size, Whatman) pre-blocked with E-400 buffer was placed in a dot-blot apparatus (Minifold I, GE Healthcare), and the reaction mixture was filtered through the membrane, followed by washing three times with 200 μL of E-400 buffer. […] Radioactive signals were scanned using a Typhoon FLA9000 (GE Healthcare) and quantified by using Image Quant TL software (GE Healthcare). The IC50 value of each competitor drug was calculated by fitting the dose response data to a one-site competition model using GraphPad Prism version 7.0 (GraphPad Software).

[8] = molecular target: T2, THRα (Homo sapiens, UniProt P10827); details: relative to T3; cited from earlier work
T2 sequence (P10827 1-410 isoform P10827-2): T1 sequence (P10827 1-410 isoform P10827-2)

[9] = tested on: Ldlr, Srebp1c; experiment: Further testing: LDL uptake, Ldlr and Srebp1c expression; type: in vivo

Structure (SMILES) | THRβ selectivity [1] | Oil Red O-positive area [2] | bone structure parameters (BV/TV, Tb.N, Tb.Sp, Tb.Th, Conn.D) [3] | width of cardiomyocytes (transnuclear width, left ventricle) [4] | heart weight ([5]; high dose 1 μmol/kg BW/day) | serum ALT levels ([6]; high dose 1 μmol/kg BW/day) | affinity for THRα lower than affinity for THRβ [7] | affinity for THRα lower than T3 [8] [fold] | cellular uptake of LDL [9] | expression of Ldlr [9] | expression of Srebp1c [9] | heart weight ([5]; low dose 0.1 μmol/kg BW/day) | serum ALT levels ([6]; low dose 0.1 μmol/kg BW/day)
Cc1cc(OCC(=O)O)cc(C)c1Cc1ccc(O)c2ccccc12 [MY-53] | found to show THRβ selectivity | – | – | – | – | – | – | – | – | – | – | – | –
Cc1cc(OCC(=O)O)cc(C)c1Cc1ccc(O)c(C(C)C)c1 [GC-1] | – | significantly reduced | significantly worsened | increased | significantly increased | significant increase | about 30 times | 10 | promoted | increased | decreased | – | –
N[C@@H](Cc1cc(I)c(Oc2ccc(O)c(I)c2)c(I)c1)C(=O)O [T3, triiodothyronine] | – | significantly reduced | significantly worsened | increased | significantly increased | – | – | – | promoted | increased | decreased | – | –
O=C(O)Cc1cc(C(F)(F)F)c(Cc2ccc(O)c3ccccc23)c(C(F)(F)F)c1 [ZTA-261] | – | significantly reduced; also recorded: the most effective, reducing the Oil Red O-positive area to a level comparable to the ND-administered group | no significant changes | no significant increase | No such effect was observed | did not show a significant increase | – | – | promoted | increased | decreased | No such effect was observed | did not show a significant increase
O=C(O)COc1cc(C(F)(F)F)c(Cc2ccc(O)c3ccccc23)c(C(F)(F)F)c1 [ZTA-245] | found to show THRβ selectivity | – | – | – | – | – | – | – | – | – | – | – | –
